Measurements published in publication PMC7306898, “Concentration-Dependent Activity of Hydromethylthionine on Clinical Decline and Brain Atrophy in a Randomized Controlled Trial in Behavioral Variant Frontotemporal Dementia” (Journal of Alzheimer's Disease, 2020).

How the values were obtained:
bvFTD patients [1] = experiment: Addenbrookes Cognitive Examination – Revised (ACE-R), 52-week Phase III trial TRx-237-007; type: in vivo, human
Description: The study was designed as a 52-week Phase III, randomized, controlled, double-blind, parallel-group trial conducted between May 2013 and February 2016 at 70 sites in Canada, United States, Australia, Asia, and Europe. Eligible patients had to be younger than 80 years of age with a diagnosis of bvFTD according to criteria revised by the International bvFTD Criteria Consortium [[1, 50]], with Mini-Mental Status Examination (MMSE) score greater than or equal to 20 at screening. In order to limit inclusion of bvFTD phenocopy cases, there was an additional requirement that patients had to meet the criterion of having definite brain atrophy in frontal and/or temporal lobes scoring 2 or more on a scale previously developed by Kipps et al.. Concomitant use of acetylcholinesterase inhibitors (AChEIs) or memantine (or both) was permitted provided this was at a stable dose for at least 18 weeks before randomization to minimize any potential early symptomatic effects of these treatments. Concomitant use of antidepressant, antipsychotic (except clozapine or olanzapine), and sedative medications was also permitted at stable doses where clinically feasible. Each patient had one or more study partners participate with them in the trial as informants. […] A detailed list of inclusion and exclusion criteria is in the protocol provided in the Supplementary Material. […]
The two doses were provided in identical blister packages as visually identical oral tablets to be taken for up to 52 weeks. […] Other outcomes included: Modified Alzheimer’s Disease Cooperative Study – Clinical Global Impression of Change (Modified-CGIC) determined by a third independent rater; Frontotemporal Dementia Rating Scale (FRS); MMSE (from MMSE items incorporated into ACE-R); Addenbrookes Cognitive Examination – III (a revised version of ACE-R which excludes MMSE items subject to copyright restrictions); change in brain volume measured by MRI in frontal and temporal lobes (FTV) and lateral ventricles (LVV); and the effect of hydromethylthionine in patients with known genetic mutations associated with bvFTD. […]

bvFTD patients [2] = experiment: Exposure-response and expanded Hill equation analysis; type: in vivo, human
Experimental: The protocol specified that PK plasma sampling was to be conducted only at sites with adequate facilities (i.e., a refrigerated centrifuge and adequate capability to freeze samples reliably). Blinded analyses were conducted at the University of Aberdeen GLP Test Facility. […] The method was validated for use in the Phase III studies over the range 0.2 to 10 ng/ml. […] Model development and estimation of steady state maximum plasma concentration (Cmax,ss) were determined independently by the Institute of Clinical Pharmacodynamics (ICPD, NY, USA). Cmax,ss estimates using a model validated in Phase I studies were based on in-clinic plasma concentration data obtained on Day 1 when the dose-sampling interval was accurately recorded. […] Change in ACE-R, ACE-III, FAQ, MMSE, Modified-CGIC, FRS, whole brain volume (WBV), lateral ventricular volume (LVV), and frontotemporal volume (FTV), as well as UPDRS Part III, were expressed as a function of Cmax,ss estimates grouped into four groups described in the results section. Cmax,ss values outside 3x the interquartile range were excluded from determination of concentration-response relationships, but were included in inferential statistical analyses.
A further analysis was undertaken (HS, BOS) using a modified form of the Hill equation which is commonly used in the analysis of concentration-response data in order to estimate the minimum and maximum plasma concentrations for expected treatment response over 52 weeks. […] In addition, a linear term was added to permit trends occurring at high concentrations to be included in the model. […] The modified Hill equation was applied to the data in the form:
change in parameter = Emin - (Emax x ([C]- 0.29))/(EC50 + ([C] -0.29)) + (A x ([C] -0.29))
where dose is in mg/day and Cmax,ss is in ng/ml units.

CN(C)c1ccc2c(c1)Sc1cc(N(C)C)ccc1N2 [hydromethylthionine, leuco-methylthioninium bis(hydromethanesulphonate)]
ACE-R: Decline±SEM for LMTM 8 mg/day group (bvFTD patients [1]; 8 mg/day (n = 110), modeled change from baseline at 52 weeks, MITT): –9.98±1.39 | reduction in decline on the ACE-R scale (bvFTD patients [1]; 8 mg/day, plasma levels above vs below […] threshold): 45% | ACE-R: Difference±SEM from LMTM 8 mg/day for 200 mg/day (bvFTD patients [1]; 200 mg/day (n = 104) vs 8 mg/day, 52 weeks, MITT): –0.49±2.10 | plasma levels over which there are steep concentration-response relationships on clinical and MRI outcomes (bvFTD patients [2]; 8 mg/day dose, bvFTD): 0.3 to 0.6 ng/mL | dose at which pharmacological activity is predicted to peak in bvFTD (bvFTD patients [2]; Hill equation analyses): ~30 mg/day | doses at which treatment responses in bvFTD are predicted to be maximal / roughly comparable (bvFTD patients [2]; Hill equation analysis): 20 to 60 mg/day | predicted treatment effect on whole brain atrophy (bvFTD patients [2]; at 30 mg/day dose): 18.52 cm^3 | predicted treatment effect on the FAQ scale (bvFTD patients [2]; at 30 mg/day dose, mean, bootstrap analysis): 7.73 units | theoretical dose corresponding to the upper limiting concentration (bvFTD patients [2]; expanded Hill equation): 301 mg/day | lower (minimum) limiting plasma concentration required for treatment response (bvFTD patients [2]; expanded Hill equation, 8 mg/day): 0.29 ng/mL | upper limiting concentration at which the treatment effect would be lost (bvFTD patients [2]; expanded Hill equation, whole brain volume, 200 mg/day terciles): 13.6 ng/mL | plasma concentration (Cmax,ss) threshold required for clinical pharmacological activity in bvFTD (bvFTD patients [2]; upper limit of the lowest 35% group at 8 mg/day): 0.346 ng/ml
